Data published in ChEMBL document CHEMBL1147116 (Antimicrob Agents Chemother, 2007).
Values after ≈ are worked out from the molar mass of the structure shown.

Key:
[1] = tested on: Streptococcus pneumoniae; test: fAUC/MIC ratio of Streptococcus pneumoniae BSP-2443 at 750 mg
[2] = Peak free concentration at 843.5 mg/24 hrs regimen in vitro PK model; type: ADME
[3] = tested on: Streptococcus pneumoniae; test: microbe, parasite or virus in culture; conditions: Staphylococcus aureus, BSP2443
[4] = tested on: Streptococcus pneumoniae; test: Susceptibility of Streptococcus pneumoniae BSP-2443 by microdilution method; type: functional; conditions: BSP2443
[5] = tested on: Streptococcus pneumoniae; test: microbe, parasite or virus in culture; conditions: Staphylococcus aureus, ATCC 49619
[6] = Half life at 1000 mg/24 hrs regimen in vitro PK model; type: ADME
[7] = Half life at 875 mg/24 hrs regimen in vitro PK model; type: ADME
[8] = Half life at 500 mg/24 hrs regimen in vitro PK model; type: ADME
[9] = tested on: Streptococcus pneumoniae; test: fAUC/MIC ratio of Streptococcus pneumoniae ATCC 49610 at 812.5 mg
[10] = tested on: Streptococcus pneumoniae; test: fAUC/MIC ratio of Streptococcus pneumoniae ATCC 49610 at 875 mg
[11] = Peak free concentration at 875 mg/24 hrs regimen in vitro PK model; type: ADME
[12] = tested on: Streptococcus pneumoniae; test: fAUC/MIC ratio of Streptococcus pneumoniae ATCC 49610 at 1000 mg
[13] = Peak free concentration at 812.5 mg/24 hrs regimen in vitro PK model; type: ADME
[14] = tested on: Streptococcus pneumoniae; test: microbe, parasite or virus in culture; conditions: Staphylococcus aureus, BSP2443; remark: listed apart in the source
[15] = tested on: Streptococcus pneumoniae; test: fAUC/MIC ratio of Streptococcus pneumoniae ATCC 49610 at 750 mg
[16] = Half life at 750 mg/24 hrs regimen in vitro PK model; type: ADME
[17] = tested on: Streptococcus pneumoniae; test: microbe, parasite or virus in culture; conditions: Staphylococcus aureus, BSP2443; remark: listed apart in the source
[18] = tested on: Streptococcus pneumoniae; test: fAUC/MIC ratio of Streptococcus pneumoniae ATCC 49610 at 843.5 mg
[19] = Peak free concentration at 500 mg/24 hrs regimen in vitro PK model; type: ADME
[20] = tested on: Streptococcus pneumoniae; test: microbe, parasite or virus in culture; conditions: Staphylococcus aureus, BSP2443; remark: listed apart in the source
[21] = tested on: Streptococcus pneumoniae; test: microbe, parasite or virus in culture; conditions: Staphylococcus aureus, ATCC 49619, 24 h
[22] = Peak free concentration at 750 mg/24 hrs regimen in vitro PK model; type: ADME
[23] = tested on: Streptococcus pneumoniae; test: fAUC/MIC ratio of Streptococcus pneumoniae BSP-2443 at 812.5 mg
[24] = Peak free concentration at 1000 mg/24 hrs regimen in vitro PK model; type: ADME
[25] = tested on: Streptococcus pneumoniae; test: microbe, parasite or virus in culture; conditions: Staphylococcus aureus, BSP2443; remark: listed apart in the source
[26] = Half life at 843.5 mg/24 hrs regimen in vitro PK model; type: ADME
[27] = Half life at 812.5 mg/24 hrs regimen in vitro PK model; type: ADME
[28] = tested on: Streptococcus pneumoniae; test: microbe, parasite or virus in culture; conditions: Staphylococcus aureus, ATCC 49619; remark: listed apart in the source
[29] = tested on: Streptococcus pneumoniae; test: Susceptibility of Streptococcus pneumoniae ATCC 49619 by microdilution method; type: functional
[30] = tested on: Streptococcus pneumoniae; test: fAUC/MIC ratio of Streptococcus pneumoniae BSP-2443 at 1000 mg
[31] = tested on: Streptococcus pneumoniae; test: microbe, parasite or virus in culture; conditions: Staphylococcus aureus, ATCC 49619; remark: listed apart in the source
[32] = tested on: Streptococcus pneumoniae; test: microbe, parasite or virus in culture; conditions: Staphylococcus aureus, ATCC 49619, 24 h; remark: listed apart in the source
[33] = tested on: Streptococcus pneumoniae; test: microbe, parasite or virus in culture; conditions: Staphylococcus aureus, ATCC 49619; remark: listed apart in the source
[34] = tested on: Streptococcus pneumoniae; test: fAUC/MIC ratio of Streptococcus pneumoniae ATCC 49610 at 500 mg
[35] = tested on: Streptococcus pneumoniae; test: microbe, parasite or virus in culture; conditions: Staphylococcus aureus, ATCC 49619, 24 h; remark: listed apart in the source
[36] = tested on: Streptococcus pneumoniae; test: microbe, parasite or virus in culture; conditions: Staphylococcus aureus, ATCC 49619; remark: listed apart in the source
[37] = tested on: Streptococcus pneumoniae; test: microbe, parasite or virus in culture; conditions: Staphylococcus aureus, ATCC 49619; remark: listed apart in the source
[38] = tested on: Streptococcus pneumoniae; test: fAUC/MIC ratio of Streptococcus pneumoniae BSP-2443 at 875 mg
[39] = tested on: Streptococcus pneumoniae; test: fAUC/MIC ratio of Streptococcus pneumoniae BSP-2443 at 937.5 mg
[40] = tested on: Streptococcus pneumoniae; test: microbe, parasite or virus in culture; conditions: Staphylococcus aureus, BSP2443, 96 h
[41] = tested on: Streptococcus pneumoniae; test: microbe, parasite or virus in culture; conditions: Staphylococcus aureus, BSP2443; remark: listed apart in the source
[42] = tested on: Streptococcus pneumoniae; test: microbe, parasite or virus in culture; conditions: Staphylococcus aureus, BSP2443, 96 h; remark: listed apart in the source
[43] = tested on: Streptococcus pneumoniae; test: fAUC/MIC ratio of Streptococcus pneumoniae BSP-2443 at 843.5 mg
[44] = tested on: Streptococcus pneumoniae; test: microbe, parasite or virus in culture; conditions: Staphylococcus aureus, ATCC 49619; remark: listed apart in the source
[45] = tested on: Streptococcus pneumoniae; test: microbe, parasite or virus in culture; conditions: Staphylococcus aureus, BSP2443, 72 h
[46] = tested on: Streptococcus pneumoniae; test: microbe, parasite or virus in culture; conditions: Staphylococcus aureus, BSP2443; remark: listed apart in the source
[47] = tested on: Streptococcus pneumoniae; test: Bactericidal activity against Streptococcus pneumoniae BSP-2443 with parC S52G, N91D mutation and gyrA S114G mutation at fAUC/MIC of 24 after 72 hrs in pharmacodynamic model; conditions: BSP2443, 72 h
[48] = tested on: Staphylococcus aureus; test: Bactericidal activity against Staphylococcus aureus ATCC 49619 at fAUC/MIC of […] after 96 hrs in pharmacodynamic model; type: functional; conditions: ATCC 49619, 96 h
[49] = Peak free concentration at 200 mg/24 hrs regimen in vitro PK model; type: ADME
[50] = tested on: Streptococcus pneumoniae; test: Bactericidal activity against Streptococcus pneumoniae BSP-2443 with parC S52G, N91D mutation and gyrA S114G mutation at fAUC/MIC of 24 after 96 hrs in pharmacodynamic model; conditions: BSP2443, 96 h
[51] = tested on: Streptococcus pneumoniae; test: microbe, parasite or virus in culture; conditions: Staphylococcus aureus, ATCC 49619; remark: listed apart in the source
[52] = Peak free concentration at 100 mg/24 hrs regimen in vitro PK model; type: ADME
[53] = Peak free concentration at 50 mg/24 hrs regimen in vitro PK model; type: ADME
[54] = tested on: Streptococcus pneumoniae; test: microbe, parasite or virus in culture; conditions: Staphylococcus aureus, BSP2443, 96 h; remark: listed apart in the source
[55] = tested on: Streptococcus pneumoniae; test: microbe, parasite or virus in culture; conditions: Staphylococcus aureus, BSP2443; remark: listed apart in the source
[56] = tested on: Streptococcus pneumoniae; test: microbe, parasite or virus in culture; conditions: Staphylococcus aureus, BSP2443; remark: listed apart in the source
[57] = tested on: Streptococcus pneumoniae; test: microbe, parasite or virus in culture; conditions: Staphylococcus aureus, ATCC 49619; remark: listed apart in the source
[58] = tested on: Staphylococcus aureus; test: Bactericidal activity against Staphylococcus aureus ATCC 49619 at fAUC/MIC of […] after 72 hrs in pharmacodynamic model; type: functional; conditions: ATCC 49619, 72 h
[59] = tested on: Streptococcus pneumoniae; test: microbe, parasite or virus in culture; conditions: Staphylococcus aureus, ATCC 49619; remark: listed apart in the source
[60] = Peak free concentration at 75 mg/24 hrs regimen in vitro PK model; type: ADME
[61] = Peak free concentration at 400 mg/24 hrs regimen in vitro PK model; type: ADME
[62] = tested on: Streptococcus pneumoniae; test: microbe, parasite or virus in culture; conditions: Staphylococcus aureus, ATCC 49619; remark: listed apart in the source

## C[C@H]1COc2c(N3CCN(C)CC3)c(F)cc3c(=O)c(C(=O)O)cn1c23.C[C@H]1COc2c(N3CCN(C)CC3)c(F)cc3c(=O)c(C(=O)O)cn1c23.O [LEVOFLOXACIN]
[1]
  fAUC/MIC: 75
[2]
  Activity: 7.09 µg/mL
[3]
  MIC: 0.75 µg/mL
[4]
  MIC: 0.025 µg/mL
[5]
  MIC: 0.75 µg/mL
[6]
  half-life: 7.85 h
[7]
  half-life: 8.02 h
[8]
  half-life: 8.01 h
[9]
  fAUC/MIC: 82
[10]
  fAUC/MIC: 97
[11]
  Activity: 7.19 µg/mL
[12]
  fAUC/MIC: 114
[13]
  Activity: 6.78 µg/mL
[14]
  MIC: 0.75 µg/mL
[15]
  fAUC/MIC: 79
[16]
  half-life: 7.52 h
[17]
  MIC: 0.75 µg/mL
[18]
  fAUC/MIC: 89
[19]
  Activity: 4.1 µg/mL
[20]
  MIC: > 32 µg/mL
[21]
  MIC: 0.75 µg/mL
[22]
  Activity: 6.13 µg/mL
[23]
  fAUC/MIC: 83
[24]
  Activity: 8.75 µg/mL
[25]
  MIC: 0.75 µg/mL
[26]
  half-life: 6.98 h
[27]
  half-life: 7.06 h
[28]
  MIC: 0.75 µg/mL
[29]
  MIC: 0.025 µg/mL
[30]
  fAUC/MIC: 117
[31]
  MIC: 0.75 µg/mL
[32]
  MIC: 1.5 µg/mL
[33]
  MIC: > 32 µg/mL
[34]
  fAUC/MIC: 55
[35]
  MIC: 1.5 µg/mL
[36]
  MIC: > 32 µg/mL
[37]
  MIC: > 32 µg/mL
[38]
  fAUC/MIC: 94
[39]
  fAUC/MIC: 104
[40]
  MIC: 2 µg/mL
[41]
  MIC: 0.75 µg/mL
[42]
  MIC: > 32 µg/mL
[43]
  fAUC/MIC: 86

## COc1c(N2C[C@@H]3CCCN[C@@H]3C2)c(F)cc2c(=O)c(C(=O)O)cn(C3CC3)c12 [MOXIFLOXACIN]
[44]
  MIC: 0.125 µg/mL (≈ 0.311 µM)
[45]
  MIC: 4 µg/mL (≈ 9.96 µM)
[4]
  MIC: 0.025 µg/mL (≈ 0.0623 µM)
[46]
  MIC: 0.25 µg/mL (≈ 0.623 µM)
[47]
  MIC: 0.38 µg/mL
[48]
  MIC: 0.75 µg/mL (≈ 1.87 µM)
[49]
  Activity: 1.1 µg/mL
[50]
  MIC: 1.5 µg/mL
[51]
  MIC: 0.125 µg/mL (≈ 0.311 µM)
[52]
  Activity: 0.6 µg/mL
[53]
  Activity: 0.3 µg/mL
[29]
  MIC: 0.025 µg/mL (≈ 0.0623 µM)
[54]
  MIC: 4 µg/mL (≈ 9.96 µM)
[55]
  MIC: 0.25 µg/mL (≈ 0.623 µM)
[56]
  MIC: 0.25 µg/mL (≈ 0.623 µM)
[57]
  MIC: 0.125 µg/mL (≈ 0.311 µM)
[58]
  MIC: 0.19 µg/mL (≈ 0.473 µM)
[59]
  MIC: 0.125 µg/mL (≈ 0.311 µM)
[60]
  Activity: 0.45 µg/mL
[61]
  Activity: 2.48 µg/mL
[62]
  MIC: 0.125 µg/mL (≈ 0.311 µM)
